Measurements from article PMC3157365 (Journal of medicinal chemistry, 2008).

Legend:
[1] = target: D2R (Homo sapiens, UniProt P14416); assay: Functional assay at D2R; assay type: cell-based
[2] = target: D3R (Homo sapiens, UniProt P35462); assay: Functional assay at D3R; assay type: cell-based
[3] = target: hD3R (Homo sapiens, UniProt P35462); assay: Displacement of 125I-IABN in HEK 293 cells transfected with hD3R; assay type: binding; conditions: vs 1
[4] = target: hD2LR (Homo sapiens, UniProt P14416); assay: Displacement of 125I-IABN in HEK 293 cells transfected with hD2LR; assay type: binding; conditions: for decrease in binding at D2R compared to the piperidinol (unbridged) analogue: comparator from ref 28
hD2LR, sequence (P14416 whole entry): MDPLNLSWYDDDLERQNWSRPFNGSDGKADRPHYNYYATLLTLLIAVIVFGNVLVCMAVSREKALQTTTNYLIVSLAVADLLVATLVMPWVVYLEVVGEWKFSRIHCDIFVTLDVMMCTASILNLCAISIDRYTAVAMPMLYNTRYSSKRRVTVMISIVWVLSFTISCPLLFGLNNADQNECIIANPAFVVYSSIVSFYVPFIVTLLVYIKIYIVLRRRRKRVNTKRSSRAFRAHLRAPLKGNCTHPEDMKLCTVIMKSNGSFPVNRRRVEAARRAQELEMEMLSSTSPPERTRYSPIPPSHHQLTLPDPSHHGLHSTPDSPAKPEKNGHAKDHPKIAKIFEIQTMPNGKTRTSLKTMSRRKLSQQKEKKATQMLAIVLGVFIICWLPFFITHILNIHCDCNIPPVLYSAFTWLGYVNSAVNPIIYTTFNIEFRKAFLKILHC

D3R, sequence (P35462 whole entry): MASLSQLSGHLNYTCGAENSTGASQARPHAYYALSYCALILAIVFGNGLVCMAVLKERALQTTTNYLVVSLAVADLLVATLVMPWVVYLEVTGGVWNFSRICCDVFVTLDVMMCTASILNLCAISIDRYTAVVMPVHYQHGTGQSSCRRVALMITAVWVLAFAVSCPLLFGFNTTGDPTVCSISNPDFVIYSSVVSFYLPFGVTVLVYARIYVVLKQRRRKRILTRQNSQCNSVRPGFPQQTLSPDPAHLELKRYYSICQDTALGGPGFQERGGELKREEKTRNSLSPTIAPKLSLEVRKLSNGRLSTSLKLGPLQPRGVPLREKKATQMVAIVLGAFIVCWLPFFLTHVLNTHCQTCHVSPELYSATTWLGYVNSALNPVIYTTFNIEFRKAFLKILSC
D2R, sequence (P14416 whole entry): as the sequence (P14416 whole entry) above
hD3R, sequence (P35462 whole entry): as the sequence (P35462 whole entry) above

Row | Compound | functional efficacy at D2R [1] | functional efficacy at D3R [2] | decrease in binding at D2R compared to the piperidinol (unbridged) analogue [4] [fold] | also measured
1 | O[C@@]1(c2ccc(Cl)cc2)C[C@H]2CC[C@@H](C1)N2Cc1csc2ccccc12 [Compound 41, endo-8-(Benzothien-3-ylmethyl)-3-(4-chlorophenyl)-8-azabicyclo[3.2.1]octan-3-ol] | antagonists | antagonists |  | 
2 | O[C@]1(c2ccc(Cl)cc2)C[C@H]2CC[C@@H](C1)N2Cc1c[nH]c2ccccc12 [Compound 31, endo-8-(1H-Indol-3-ylmethyl)-3-(4-chlorophenyl)-8-azabicyclo-[3.2.1]octan-3-ol] | antagonists | antagonists |  | increase in D3R binding affinity compared to the parent ligand 1 [3]: 10 fold; decrease in affinity at D2R compared to 1 ([4]; vs 1): 3 fold
3 | CSc1ccc([C@]2(O)C[C@H]3CC[C@@H](C2)N3Cc2c[nH]c3ccccc23)cc1 [Compound 37, endo-8-(1H-Indol-3-ylmethyl)-3-(4-(methylthio)phenyl)-8-azabicyclo[3.2.1]octan-3-ol] |  |  | 24 | 
4 | O[C@@]1(c2ccc(Cl)c(Cl)c2)C[C@H]2CC[C@@H](C1)N2Cc1c[nH]c2ccccc12 [Compound 32, endo-8-(1H-Indol-3-ylmethyl)-3-(3,4-dichlorophenyl)-8-azabicyclo[3.2.1]octan-3-ol] |  | antagonists |  | 
5 | OC1(c2ccc(Cl)c(Cl)c2)CCN(Cc2c[nH]c3ccccc23)CC1 [Compound 2, reference compound] |  |  |  | selectivity for the D2 receptor subtype ([4]; D2R over D3R): more than 10 fold
6 | COc1ccc2[nH]cc(CN3[C@@H]4CC[C@H]3C[C@](O)(c3ccc(SC)cc3)C4)c2c1 [Compound 40, endo-8-(5-Methoxy-1H-indol-3-ylmethyl)-3-(4-methylthiophenyl)-8-azabicyclo[3.2.1]octan-3-ol] |  |  | 100 | 
